Source: US8343961B2, “Substituted heterocyclic compounds” (ArQule, Inc., priority 2009, dated 2013)

The compounds below were run against T1, Tec kinase (Homo sapiens, UniProt P42680) (assay: Tec Kinase Activity Assay). Details: read-out: Tec % INH, at 30 uM.
T1 sequence (P42680 1-631): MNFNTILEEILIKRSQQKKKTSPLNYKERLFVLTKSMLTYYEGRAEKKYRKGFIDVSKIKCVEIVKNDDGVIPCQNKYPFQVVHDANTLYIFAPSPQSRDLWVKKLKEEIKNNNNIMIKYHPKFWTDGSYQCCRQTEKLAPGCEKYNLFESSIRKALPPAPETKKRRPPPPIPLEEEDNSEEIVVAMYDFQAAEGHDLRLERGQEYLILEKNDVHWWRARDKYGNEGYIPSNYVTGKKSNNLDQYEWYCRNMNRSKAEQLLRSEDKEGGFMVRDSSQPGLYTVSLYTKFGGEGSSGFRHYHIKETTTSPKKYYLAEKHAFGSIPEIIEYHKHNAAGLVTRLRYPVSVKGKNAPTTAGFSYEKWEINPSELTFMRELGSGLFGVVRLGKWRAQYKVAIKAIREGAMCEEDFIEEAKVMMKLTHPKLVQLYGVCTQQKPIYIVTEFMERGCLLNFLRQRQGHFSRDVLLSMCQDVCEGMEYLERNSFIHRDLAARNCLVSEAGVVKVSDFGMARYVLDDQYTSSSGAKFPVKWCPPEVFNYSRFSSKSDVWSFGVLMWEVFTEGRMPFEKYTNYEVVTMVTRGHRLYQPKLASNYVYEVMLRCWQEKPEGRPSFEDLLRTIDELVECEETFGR
Type: biochemical
Experimental: The disclosed compounds were assayed for their ability to inhibit the activity of Tec kinase. Nunc Maxisorb plates were coated with streptavidin by overnight incubation with 100 μL per well of 1 μg/mL Streptavidin in DPBS. Prior to the start of the experiment, the plates were washed with TBST (3×200 μL) and blocked for at least 1 hour by adding 150 μL of 5% BSA/TBST. The plates were washed with TBST (3×200 μL/well) and left dry immediately before the capture step.
The test articles and controls (Staurosporine and Sutent) were prepared using the following assay buffer @ 3× desired final concentration (50 mM Tris-HCl, 0.02 mg/mL BSA, 10 mM MgCl2, 0.1 mM Na3VO4, 1 mM EGTA, 75 μM ATP0.01% NP-40, 2 mM DTT in 10% glycerol/water). In a reaction plate were added rapidly 20 μL test article (or control) and 20 μL TEC 0.25 ng/4. The plate was incubated for 30 minutes. To the reaction plate was added 20 μL of Pyk-2.5 ng/μL. The plate was incubated at room temperature for two hours. From the reaction plate, 50 μL was transferred to the streptavidin coated plate. The capture plate was incubated at room temperature for 30 minutes then washed 6× with TBST. To the capture plate was added 100 μL/well of Cell Signaling anti-phospho tyrosine at a dilution of 1:3000 in 2% BSA/TBST. The plate was incubated for one hour at room temperature then washed 6× with TBST. To the capture plate was added 100 μL/well of Alkaline Phosphatase Tagged Goat anti Mouse Antibody at a dilution of 1:4000 in 2% BSA/TBST. The plate was incubated for one hour at room temperature then washed 6× with TBST. The fluorescent readout was initiated by the addition of 100 μL/well of Attophos reagent (6 mg/10 mL). The reading was done on the Perkin Elmer Envision system.

Q: For `COc1ccc(CN2CCN(c3nc(N)nc4[nH]cnc34)Cc3ccccc32)cc1OC` [Compound 27, 6-[1-(3,4-dimethoxybenzyl)-1,2,3,5-tetrahydro-4H-1,4-benzodiazepin-4-yl]-9H-purin-2-amine], which inhibition at 30 µM is on record?
A: 50 to 79%

Q: `COc1cccc(CN2CCN(c3nc(N)nc4[nH]cnc34)Cc3ccccc32)c1` [Compound 2, 6-[1-(3-methoxybenzyl)-1,2,3,5-tetrahydro-4H-1,4-benzodiazepin-4-yl]-9H-purin-2-amine] was tested. Which inhibition at 30 µM did it give?
A: 50 to 79%

Q: For `COc1ccccc1CN1CCN(c2nc(N)nc3[nH]ncc23)Cc2ccccc21` [Compound 10, 4-[1-(2-methoxybenzyl)-1,2,3,5-tetrahydro-4H-1,4-benzodiazepin-4-yl]-1H-pyrazolo[3,4-d]pyrimidin-6-amine], which inhibition at 30 µM is on record?
A: > 79%

Q: For `Cc1ccc(CCCN2CCN(c3nc(N)nc4[nH]ncc34)Cc3ccccc32)cc1` [Compound 45, 4-{1-[3-(4-methylphenyl)propyl]-1,2,3,5-tetrahydro-4H-1,4-benzodiazepin-4-yl}-1H-pyrazolo[3,4-d]pyrimidin-6-amine], which inhibition at 30 µM is on record?
A: > 79%

Q: For `Nc1nc(N2CCN(Cc3ccc(F)c(F)c3)c3ccccc3C2)c2nc[nH]c2n1` [Compound 46, 6-[1-(3,4-difluorobenzyl)-1,2,3,5-tetrahydro-4H-1,4-benzodiazepin-4-yl]-9H-purin-2-amine], which inhibition at 30 µM is on record?
A: < 50%

Q: Which inhibition at 30 µM does the source give for `Nc1nc(N2CCN(Cc3cccc(C(F)(F)F)c3)c3ccccc3C2)c2nc[nH]c2n1` [Compound 20, 6-{1-[3-(trifluoromethyl)benzyl]-1,2,3,5-tetrahydro-4H-1,4-benzodiazepin-4-yl}-9H-purin-2-amine] here?
A: 50 to 79%

Q: `Nc1nc(N2CCN(CCCc3ccccc3)c3ccccc3C2)c2cn[nH]c2n1` [Compound 41, 4-[1-(3-phenylpropyl)-1,2,3,5-tetrahydro-4H-1,4-benzodiazepin-4-yl]-1H-pyrazolo[3,4-d]pyrimidin-6-amine] was tested. Which inhibition at 30 µM did it give?
A: 50 to 79%

Q: With `Cc1ccc(CCCN2CCN(c3nc(N)nc4[nH]cnc34)Cc3ccccc32)cc1` [Compound 44, 6-{1-[3-(4-methylphenyl)propyl]-1,2,3,5-tetrahydro-4H-1,4-benzodiazepin-4-yl}-9H-purin-2-amine] as the compound, how does the inhibition at 30 µM read?
A: < 50%

Q: `COc1cccc(CN2CCN(c3nc(N)nc4[nH]ncc34)Cc3ccccc32)c1` [Compound 1, 4-[1-(3-methoxybenzyl)-1,2,3,5-tetrahydro-4H-1,4-benzodiazepin-4-yl]-1H-pyrazolo[3,4-d]pyrimidin-6-amine] was tested. Which inhibition at 30 µM did it give?
A: > 79%

Q: `Nc1nc(N2CCN(Cc3cccc4ccccc34)c3ccccc3C2)c2nc[nH]c2n1` [Compound 17, 6-[1-(1-naphthylmethyl)-1,2,3,5-tetrahydro-4H-1,4-benzodiazepin-4-yl]-9H-purin-2-amine] was tested. Which inhibition at 30 µM did it give?
A: 50 to 79%

Q: How did the inhibition at 30 µM turn out when `Nc1nc(N2CCN(Cc3ccc(Cl)cc3Cl)c3ccccc3C2)c2nc[nH]c2n1` [Compound 31, 6-[1-(2,4-dichlorobenzyl)-1,2,3,5-tetrahydro-4H-1,4-benzodiazepin-4-yl]-9H-purin-2-amine] was run?
A: < 50%

Q: For `Nc1nc(N2CCN(Cc3ccc(Cl)c(Cl)c3)c3ccccc3C2)c2nc[nH]c2n1` [Compound 42, 6-[1-(3,4-dichlorobenzyl)-1,2,3,5-tetrahydro-4H-1,4-benzodiazepin-4-yl]-9H-purin-2-amine], which inhibition at 30 µM is on record?
A: < 50%

Q: With `Nc1nc(N2CCN(Cc3ccccc3Cl)c3ccccc3C2)c2nc[nH]c2n1` [Compound 13, 6-[1-(2-chlorobenzyl)-1,2,3,5-tetrahydro-4H-1,4-benzodiazepin-4-yl]-9H-purin-2-amine] as the compound, how does the inhibition at 30 µM read?
A: < 50%

Q: Which inhibition at 30 µM does the source give for `Nc1nc(N2CCN(CCCc3cccc(Cl)c3)c3ccccc3C2)c2nc[nH]c2n1` [Compound 7, 6-{1-[3-(3-chlorophenyl)propyl]-1,2,3,5-tetrahydro-4H-1,4-benzodiazepin-4-yl}-9H-purin-2-amine] here?
A: 50 to 79%

Q: For `Nc1nc(N2CCN(Cc3cccc(Cl)c3)c3ccccc3C2)c2nc[nH]c2n1` [Compound 24, 6-[1-(3-chlorobenzyl)-1,2,3,5-tetrahydro-4H-1,4-benzodiazepin-4-yl]-9H-purin-2-amine], which inhibition at 30 µM is on record?
A: 50 to 79%

Q: `COc1ccccc1CN1CCN(c2nc(N)nc3[nH]cnc23)Cc2ccccc21` [Compound 9, 6-[1-(2-methoxybenzyl)-1,2,3,5-tetrahydro-4H-1,4-benzodiazepin-4-yl]-9H-purin-2-amine] was tested. Which inhibition at 30 µM did it give?
A: 50 to 79%

Q: How did the inhibition at 30 µM turn out when `Nc1nc(N2CCN(Cc3ccc(F)cc3F)c3ccccc3C2)c2cn[nH]c2n1` [Compound 38, 4-[1-(2,4-difluorobenzyl)-1,2,3,5-tetrahydro-4H-1,4-benzodiazepin-4-yl]-1H-pyrazolo[3,4-d]pyrimidin-6-amine] was run?
A: 50 to 79%

Q: Which inhibition at 30 µM does the source give for `COc1cc2c(cc1OC)C(c1cccc(Cl)c1F)N(c1nc(N)nc3[nH]cnc13)CC2` (stereo not drawn) [Compound 49, 6-[1-(3-chloro-2-fluorophenyl)-6,7-dimethoxy-3,4-dihydroisoquinolin-2(1H)-yl]-9H-purin-2-amine] here?
A: < 50%

Q: For `Nc1nc(N2CCN(Cc3ccc(F)cc3)c3ccccc3C2)c2cn[nH]c2n1` [Compound 16, 4-[1-(4-fluorobenzyl)-1,2,3,5-tetrahydro-4H-1,4-benzodiazepin-4-yl]-1H-pyrazolo[3,4-d]pyrimidin-6-amine], which inhibition at 30 µM is on record?
A: 50 to 79%

Q: Which inhibition at 30 µM does the source give for `CC(C)c1ccc(CN2CCN(c3nc(N)nc4[nH]ncc34)Cc3ccccc32)cc1` [Compound 4, 4-[1-(4-isopropylbenzyl)-1,2,3,5-tetrahydro-4H-1,4-benzodiazepin-4-yl]-1H-pyrazolo[3,4-d]pyrimidin-6-amine] here?
A: 50 to 79%

Q: How did the inhibition at 30 µM turn out when `Nc1nc(N2CCN(Cc3ccc(F)c(F)c3)c3ccccc3C2)c2cn[nH]c2n1` [Compound 47, 4-[1-(3,4-difluorobenzyl)-1,2,3,5-tetrahydro-4H-1,4-benzodiazepin-4-yl]-1H-pyrazolo[3,4-d]pyrimidin-6-amine] was run?
A: 50 to 79%

Q: How did the inhibition at 30 µM turn out when `Nc1nc(N2CCN(CCCc3ccccc3)c3ccccc3C2)c2nc[nH]c2n1` [Compound 40, 6-[1-(3-phenylpropyl)-1,2,3,5-tetrahydro-4H-1,4-benzodiazepin-4-yl]-9H-purin-2-amine] was run?
A: > 79%

Q: For `Cc1cccc(CN2CCN(c3nc(N)nc4[nH]cnc34)Cc3ccccc32)c1` [Compound 33, 6-[1-(3-methylbenzyl)-1,2,3,5-tetrahydro-4H-1,4-benzodiazepin-4-yl]-9H-purin-2-amine], which inhibition at 30 µM is on record?
A: < 50%

Q: With `Nc1nc(N2CCN(Cc3ccc(F)cc3)c3ccccc3C2)c2nc[nH]c2n1` [Compound 15, 6-[1-(4-fluorobenzyl)-1,2,3,5-tetrahydro-4H-1,4-benzodiazepin-4-yl]-9H-purin-2-amine] as the compound, how does the inhibition at 30 µM read?
A: 50 to 79%

Q: Which inhibition at 30 µM does the source give for `Cc1ccc(CN2CCN(c3nc(N)nc4[nH]cnc34)Cc3ccccc32)cc1` [Compound 26, 6-[1-(4-methylbenzyl)-1,2,3,5-tetrahydro-4H-1,4-benzodiazepin-4-yl]-9H-purin-2-amine] here?
A: < 50%

Q: `Cc1cccc(CN2CCN(c3nc(N)nc4[nH]ncc34)Cc3ccccc32)c1` [Compound 34, 4-[1-(3-methylbenzyl)-1,2,3,5-tetrahydro-4H-1,4-benzodiazepin-4-yl]-1H-pyrazolo[3,4-d]pyrimidin-6-amine] was tested. Which inhibition at 30 µM did it give?
A: 50 to 79%

Q: `COc1ccc(OC)c(CN2CCN(c3nc(N)nc4[nH]cnc34)Cc3ccccc32)c1` [Compound 35, 6-[1-(2,5-dimethoxybenzyl)-1,2,3,5-tetrahydro-4H-1,4-benzodiazepin-4-yl]-9H-purin-2-amine] was tested. Which inhibition at 30 µM did it give?
A: 50 to 79%

Q: With `Nc1nc(N2CCN(Cc3ccc(F)cc3F)c3ccccc3C2)c2nc[nH]c2n1` [Compound 37, 6-[1-(2,4-difluorobenzyl)-1,2,3,5-tetrahydro-4H-1,4-benzodiazepin-4-yl]-9H-purin-2-amine] as the compound, how does the inhibition at 30 µM read?
A: 50 to 79%

Q: With `CC(C)c1ccc(CN2CCN(c3nc(N)nc4[nH]cnc34)Cc3ccccc32)cc1` [Compound 3, 6-[1-(4-isopropylbenzyl)-1,2,3,5-tetrahydro-4H-1,4-benzodiazepin-4-yl]-9H-purin-2-amine] as the compound, how does the inhibition at 30 µM read?
A: < 50%

Q: With `Cc1ccccc1CN1CCN(c2nc(N)nc3[nH]cnc23)Cc2ccccc21` [Compound 11, 6-[1-(2-methylbenzyl)-1,2,3,5-tetrahydro-4H-1,4-benzodiazepin-4-yl]-9H-purin-2-amine] as the compound, how does the inhibition at 30 µM read?
A: 50 to 79%
